The subject of one experiment is VCaP cells. Briefly: VCaP growth inhibition assay. It is filed as cell-based. The conditions noted are these: 30 pM R1881, 9 days, CTG. An outline of the steps: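 VCaP cells in phenol red-free DMEM/5% CSS, pre-incubated 72 h, then stimulated with R1881 (final 30 pM) and treated with 1:5 serial dilutions (final 100 nM to 10 fM) for 9 days at 37 °C. Viability by CellTiter-Glo luminescence; IC50 from 4-parameter logistic fit of RLU vs concentration.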

For the next experiment, the system named is AR / CBP ternary complex. Briefly: Ternary complex formation assay (sandwich ELISA, AR capture / CBP detection) in VCaP cell lysates. The conditions noted are these: 1.5 hours treatment, sandwich ELISA (AR capture, CBP or p300 detection). It is filed as cell-based. An outline of the steps:
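VCaP cells (50K/well, 5% charcoal-stripped FBS, ≥3 days) treated with bifunctional compound for 1.5 h, then lysed 30 min at 4 °C. AR captured on anti-AR (AR 441) plates; bound CBP or p300 detected by rabbit mAb plus HRP secondary. QuantaRed chemifluorescence read at ex 570/em 585, immediately and at 5 and 15 min.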
For orientation: ELISA stands for enzyme-linked immunosorbent assay.

SMILES strings stand for the structures.

For `CC(=O)N1CCc2c(c(N3CCCc4cc(-c5cnn(C)c5)c(C(F)F)cc43)nn2C2CCN([C@H]3CCCN(c4ncc(C(=O)NC5C(C)(C)C(Oc6ccc(C#N)c(Cl)c6)C5(C)C)cn4)C3)CC2)C1` (stereo partly drawn) [Compound 397, 2-[(3S)-3-[4-[5-acetyl-3-[7-(difluoromethyl)-6-(1-methylpyrazol-4-yl)-3,4-dihydro-2H-quinolin-1-yl]-6,7-dihydro-4H-pyrazolo[4,3-c]pyridin-1-yl]-1-piperidyl]-1-piperidyl]-N-[3-(3-chloro-4-cyano-phenoxy)-2,2,4,4-tetramethyl-cyclobutyl]pyrimidine-5-carboxamide], the half-maximal inhibitory concentration (IC50) (as a rule, the concentration at which inhibition is half-maximal) in the experiment on VCaP cells was greater than 100 nM. The EC50 (in general, the concentration needed to bring the measured effect to its halfway point) in the experiment with AR / CBP ternary complex fell in the range of 1 to 10 nM.
On the same counts, the results for `C[C@@H]1CC(=O)Nc2cccc(-c3ccc4c(c3)c(-c3cnn(C)c3)nn4CC3CCN(c4ncc(C(=O)NC5C(C)(C)C(Oc6ccc(C#N)c(Cl)c6)C5(C)C)cn4)CC3)c2N1` (stereo partly drawn) [Compound 58, N-[3-(3-chloro-4-cyano-phenoxy)-2,2,4,4-tetramethyl-cyclobutyl]-2-[4-[[5-[(4R)-4-methyl-2-oxo-1,3,4,5-tetrahydro-1,5-benzodiazepin-6-yl]-3-(1-methylpyrazol-4-yl)indazol-1-yl]methyl]-1-piperidyl]pyrimidine-5-carboxamide] are greater than 100 nM and greater than 100 nM.
For `CC(=O)N1CCc2c(c(N3CCCc4cc(-c5cnn(C)c5)c(C)cc43)nn2C2CCN(C3CCC4(CC3)CN(c3ncc(C(=O)NC5C(C)(C)C(Oc6ccc(C#N)c(Cl)c6C)C5(C)C)cn3)C4)CC2)C1` (stereo not shown) [Compound 473, 2-[7-[4-[5-acetyl-3-[7-methyl-6-(1-methylpyrazol-4-yl)-3,4-dihydro-2H-quinolin-1-yl]-6,7-dihydro-4H-pyrazolo[4,3-c]pyridin-1-yl]-1-piperidyl]-2-azaspiro[3.5]nonan-2-yl]-N-[3-(3-chloro-4-cyano-2-methyl-phenoxy)-2,2,4,4-tetramethyl-cyclobutyl]pyrimidine-5-carboxamide], the IC50 in the experiment on VCaP cells is 0.1 to 1 nM. This compound registered an EC50 with AR / CBP ternary complex of less than 1 nM.
Taken in the same sequence, the figures for `CC(=O)N1CCc2c(c(N3CCCc4cc(-c5cnn(C)c5)c(C(F)(F)F)cc43)nn2C2CCN(CC3CCN(c4ncc(C(=O)NC5C(C)(C)C(Oc6ccc(C#N)c(Cl)c6)C5(C)C)cn4)CC3)CC2)C1` (stereo not shown) [Compound 27, 2-[4-[[4-[5-acetyl-3-[6-(1-methylpyrazol-4-yl)-7-(trifluoromethyl)-3,4-dihydro-2H-quinolin-1-yl]-6,7-dihydro-4H-pyrazolo[4,3-c]pyridin-1-yl]-1-piperidyl]methyl]-1-piperidyl]-N-[3-(3-chloro-4-cyano-phenoxy)-2,2,4,4-tetramethyl-cyclobutyl]pyrimidine-5-carboxamide] were 0.1 to 1 nM and less than 1 nM.
Taken in the same sequence, the figures for `CC(=O)N1CCc2c(c(-c3cccc4cc(-c5cnn(CCC6CC7(C6)CN(c6ncc(C(=O)NC8C(C)(C)C(Oc9ccc(C#N)c(Cl)c9)C8(C)C)cn6)C7)c5)ncc34)nn2C)C1` (stereo not shown) [Compound 226, 2-[6-[2-[4-[8-(5-acetyl-1-methyl-6,7-dihydro-4H-pyrazolo[4,3-c]pyridin-3-yl)-3-isoquinolyl]pyrazol-1-yl]ethyl]-2-azaspiro[3.3]heptan-2-yl]-N-[3-(3-chloro-4-cyano-phenoxy)-2,2,4,4-tetramethyl-cyclobutyl]pyrimidine-5-carboxamide] were no more than 0.1 nM and less than 1 nM.
For `CC(=O)N1CCc2c(c(Nc3ccc(-c4cnn(C)c4)cc3F)nn2C2CN(CC3CCN(c4ncc(C(=O)NC5C(C)(C)C(Oc6ccc(C#N)c(Cl)c6)C5(C)C)cn4)CC3)C2)C1` (stereo not shown) [Compound 4, 2-[4-[[3-[5-acetyl-3-[2-fluoro-4-(1-methylpyrazol-4-yl)anilino]-6,7-dihydro-4H-pyrazolo[4,3-c]pyridin-1-yl]azetidin-1-yl]methyl]-1-piperidyl]-N-[3-(3-chloro-4-cyano-phenoxy)-2,2,4,4-tetramethyl-cyclobutyl]pyrimidine-5-carboxamide], the IC50 in the experiment on VCaP cells is greater than 100 nM. The compound further showed an EC50 in the experiment on AR / CBP ternary complex greater than 100 nM.
`COc1cc(OC2C(C)(C)C(NC(=O)c3ccc(N4CCN(CCc5ccc(-c6cc7c(cn6)N(c6nn(C8CCOCC8)c8c6CN(C(C)=O)CC8)CCC7)cn5)CC4)cc3)C2(C)C)ccc1C#N` (stereo not shown) [Compound 251, 4-[4-[2-[5-[1-(5-acetyl-1-tetrahydropyran-4-yl-6,7-dihydro-4H-pyrazolo[4,3-c]pyridin-3-yl)-3,4-dihydro-2H-1,7-naphthyridin-6-yl]-2-pyridyl]ethyl]piperazin-1-yl]-N-[3-(4-cyano-3-methoxy-phenoxy)-2,2,4,4-tetramethyl-cyclobutyl]benzamide] came in with a half-inhibitory concentration (IC50) with VCaP cells of 0.1 to 1 nM. In the experiment on AR / CBP ternary complex, this compound yielded a concentration for a half-maximal effect (EC50) of less than 1 nM.
On the same counts, the results for `CC(=O)N1CCc2c(c(Nc3ccc(-c4cnn(C)c4)cc3F)nn2C2CCN(C(=O)COC3CCN(c4ncc(C(=O)NC5C(C)(C)C(Oc6ccc(C#N)c(Cl)c6)C5(C)C)cn4)CC3)CC2)C1` (stereo not shown) [Compound 177, 2-[4-[2-[4-[5-acetyl-3-[2-fluoro-4-(1-methylpyrazol-4-yl)anilino]-6,7-dihydro-4H-pyrazolo[4,3-c]pyridin-1-yl]-1-piperidyl]-2-oxo-ethoxy]-1-piperidyl]-N-[3-(3-chloro-4-cyano-phenoxy)-2,2,4,4-tetramethyl-cyclobutyl]pyrimidine-5-carboxamide] are greater than 100 nM and less than 1 nM.
On the same counts, the results for `CC(=O)N1CCc2c(c(N3CCCc4cc(C#N)ccc43)nn2C2CC3(C2)CN(C(=O)C2CC4(C2)CN(c2ncc(C(=O)NC5C(C)(C)C(Oc6ccc(C#N)c(Cl)c6)C5(C)C)cn2)C4)C3)C1` (stereo not shown) [Compound 220, 2-[6-[6-[5-acetyl-3-(6-cyano-3,4-dihydro-2H-quinolin-1-yl)-6,7-dihydro-4H-pyrazolo[4,3-c]pyridin-1-yl]-2-azaspiro[3.3]heptane-2-carbonyl]-2-azaspiro[3.3]heptan-2-yl]-N-[3-(3-chloro-4-cyano-phenoxy)-2,2,4,4-tetramethyl-cyclobutyl]pyrimidine-5-carboxamide] are 1 to 100 nM and less than 1 nM.
Taken in the same sequence, the figures for `CC(=O)N1CCc2c(c(N3CCCc4cc(-c5cnn(C)c5)c(C(F)F)cc43)nn2C2CCN([C@H]3CCN(c4ncc(C(=O)NC5C(C)(C)C(Oc6ccc(C#N)c(Cl)c6)C5(C)C)cn4)C3)CC2)C1` (stereo partly drawn) [Compound 334, 2-[(3S)-3-[4-[5-acetyl-3-[7-(difluoromethyl)-6-(1-methylpyrazol-4-yl)-3,4-dihydro-2H-quinolin-1-yl]-6,7-dihydro-4H-pyrazolo[4,3-c]pyridin-1-yl]-1-piperidyl]pyrrolidin-1-yl]-N-[3-(3-chloro-4-cyano-phenoxy)-2,2,4,4-tetramethyl-cyclobutyl]pyrimidine-5-carboxamide] were 0.1 to 1 nM and less than 1 nM.
`CC(=O)N1CCc2c(c(N3CCCc4ccc(C(F)F)cc43)nn2C2CCN(CC3CCN(c4ncc(C(=O)NC5C(C)(C)C(Oc6ccc(C#N)c(Cl)c6)C5(C)C)cn4)CC3)CC2)C1` (stereo not shown) [Compound 150, 2-[4-[[4-[5-acetyl-3-[7-(difluoromethyl)-3,4-dihydro-2H-quinolin-1-yl]-6,7-dihydro-4H-pyrazolo[4,3-c]pyridin-1-yl]-1-piperidyl]methyl]-1-piperidyl]-N-[3-(3-chloro-4-cyano-phenoxy)-2,2,4,4-tetramethyl-cyclobutyl]pyrimidine-5-carboxamide] displayed an IC50 in the experiment with VCaP cells of no more than 0.1 nM. In addition, the concentration for a half-maximal effect (EC50) in the experiment with AR / CBP ternary complex fell in the range of 1 to 10 nM.
On the same counts, the results for `CC(=O)N1CCc2c(c(-c3cccc4cc(-c5ccc(C(=O)NC6CCN(c7ncc(C(=O)NC8C(C)(C)C(Oc9ccc(C#N)c(Cl)c9)C8(C)C)cn7)CC6)nc5)ncc34)nn2C2CCOCC2)C1` (stereo not shown) [Compound 180, 2-[4-[[5-[8-(5-acetyl-1-tetrahydropyran-4-yl-6,7-dihydro-4H-pyrazolo[4,3-c]pyridin-3-yl)-3-isoquinolyl]pyridine-2-carbonyl]amino]-1-piperidyl]-N-[3-(3-chloro-4-cyano-phenoxy)-2,2,4,4-tetramethylcyclobutyl]pyrimidine-5-carboxamide] are no more than 0.1 nM and less than 1 nM.
On the same counts, the results for `CC(=O)N1CCc2c(c(N3CCCc4cc(-c5cnn(C)c5)c(C(F)F)cc43)nn2C2CCN(C(C)COC3CCN(c4ncc(C(=O)NC5C(C)(C)C(Oc6ccc(C#N)c(Cl)c6)C5(C)C)cn4)CC3)CC2)C1` (stereo not shown) [Compound 169, 2-[4-[2-[4-[5-acetyl-3-[7-(difluoromethyl)-6-(1-methylpyrazol-4-yl)-3,4-dihydro-2H-quinolin-1-yl]-6,7-dihydro-4H-pyrazolo[4,3-c]pyridin-1-yl]-1-piperidyl]propoxy]-1-piperidyl]-N-[3-(3-chloro-4-cyano-phenoxy)-2,2,4,4-tetramethyl-cyclobutyl]pyrimidine-5-carboxamide] are no more than 0.1 nM and less than 1 nM.
Taken in the same sequence, the figures for `COc1cc(OC2C(C)(C)C(NC(=O)c3ccc(N4CCC(CCc5ccc(-c6cc7c(cc6C(F)F)N(c6nn(C8CCOCC8)c8c6CN(C(C)=O)CC8)CCC7)cn5)CC4)cc3)C2(C)C)ccc1C#N` (stereo not shown) [Compound 247, 4-[4-[2-[5-[1-(5-acetyl-1-tetrahydropyran-4-yl-6,7-dihydro-4H-pyrazolo[4,3-c]pyridin-3-yl)-7-(difluoromethyl)-3,4-dihydro-2H-quinolin-6-yl]-2-pyridyl]ethyl]-1-piperidyl]-N-[3-(4-cyano-3-methoxy-phenoxy)-2,2,4,4-tetramethyl-cyclobutyl]benzamide] were 0.1 to 1 nM and less than 1 nM.

These data come from patent publication US20250129070A1, “BIFUNCTIONAL ANDROGEN RECEPTOR COMPOUNDS” (priority 2023, published 2025).
